According to US20190008918A1, “IMMUNOMODULATION THERAPIES FOR CANCER” (BIOXCEL CORPORATION, priority 2016, published 2019):

Tests used:
[1] = system: MC38 mouse colon cancer cell line; experiment: Antitumor efficacy in MC38 mouse model of colon adenocarcinoma (tumor volume, % TGI); assay type: in vivo, mouse (C57BL/6); details: day 10, Mifamurtide 30 μg biw and/or PD-1 antagonist 5 mg/kg biw
From the text: Six to seven-week-old female C57BL/6 mice (20±4 g weight) were used in the studies. Mice received food and water ad libitum. The study protocol, the procedures involving the care and use of animals were reviewed and approved by the Institutional Animal Care and Use Committee (IACUC) to ensure compliance with the regulations of the Association for Assessment and Accreditation of Laboratory Animal Care (AAALAC).
(§1) DMEM medium (Cat. No.: 11960-044). Glutamax™ (Cat. No.: 35050061), Trypsin-EDTA (0.25%) (Cat. No.: 25200-056), Penicillin-Streptomycin (Cat. No.: 15070-063), Hanks' Balanced Salt solution (Cat. No.: 14175-095) were procured form Gibco, while Fetal Bovine Serum (FBS) Cat. No.: 004-001-1A was purchased from Biological Industries. PD-1 antagonist (Cat. No.: BE0146) was supplied by BioXcell. Stock solutions of PD-1 antagonist at 1 mg/ml were kept at 4° C. prior to use. Dosing solutions of PD-1 antagonist were prepared freshly before every administration in sterile phosphate buffered saline (pH 7.0) and maintained at 4° C. The test article Mifamurtide was procured from Sigma (SML0195) and prepared freshly as a working solution at concentration of 300 μg/ml and 100 μg/ml in sterile phosphate buffered saline (pH 7.0), to be administered at a total dose of 30 μg (corresponds to 1.5 mg/kg in mice) and 10 μg (corresponds to 0.5 mg/kg in mice) respectively, into the animal as indicated in Table 1. Luminex assay kit: MCYTOMAG-70K-32 was commercially available from Millipore, was used to analyze the cytokines and chemokines in the serum samples.
MC38 mouse colon cancer cell line as provided by GenScript were maintained as monolayer culture in DMEM supplemented with 10% fetal bovine serum (FBS), 1% Glutamax™ and 1% Penicillin-Streptomycin at 37° C. in an atmosphere with 5% CO2. The cells were routinely sub-cultured every 2 days to maintain growth at exponential phase. The tumor cells growing in exponential growth phase were harvested by trypsinization, followed by centrifugation at 335×g relative centrifugal force (RCF) in a centrifuge. The supernatant was subsequently removed by aspiration. Cell pellet was re-suspended in approximately 10× volume of cell culture medium and counted. The cell suspension was centrifuged again and processed as above and finally re-suspended in HBSS at a density of 1×10^7 cells per ml. Cell viability was determined to be ≥95% by trypan blue staining. […]
Tumor size and body weights were measured twice weekly.
Tumor size was measured twice per week in 2 dimensions using a caliper (recorded up to one decimal point). Tumor volume, expressed in mm^3, was calculated using the following formula, in which “a” and “b” were the long and the short diameters of a tumor, respectively. […]

[2] = system: cytokines (IFN-γ, IL-6, IL-12p40, and TNF-α) and chemokines (MCP-1 and MIP-2); experiment: Luminex analysis of serum cytokines and chemokines in MC38 tumor bearing mice; assay type: in vivo, mouse (C57BL/6)
Procedure: as §1
The immuno-modulatory effect of Mifamurtide at dose of 30 μg (b.i.w.) in the presence and absence of PD-1 antagonist at dose 5 mg/kg (b.i.w.) was also analysed. Luminex analysis was done to check the levels of cytokines (IFN-γ, IL-6, IL-12p40, and TNF-α) and chemokines (MCP-1 and MIP-2). […] Although all Mifamurtide doses and combinations were tolerated with no early death and sustained effect on body weight (data not shown).

[3] = post (8 hours) vs pre, Mifamurtide 30 μg and/or PD-1 antagonist 5 mg/kg
[4] = post (Day 11) vs pre, Mifamurtide 30 μg and/or PD-1 antagonist 5 mg/kg
[5] = serum, 8 hours post dose, Mifamurtide 30 μg and/or PD-1 antagonist 5 mg/kg
[6] = serum, Day 11, Mifamurtide 30 μg and/or PD-1 antagonist 5 mg/kg
[7] = serum, before dosing, Mifamurtide 30 μg and/or PD-1 antagonist 5 mg/kg group

Mifamurtide
TGI % & SEM (with ref. to Mifamurtide) [1]: 0.00% | TGI % (±SEM) (with ref. to PD-1 Antagonist) [1]: −39.48% | TGI % (±SEM) (with ref. to vehicle) [1]: −8.36% | Tumor volume (mm^3) (±SEM) ([1]; mean, i.p.): 2791.64 mm^3 | IFN gamma, Fold change [2, 3]: 0.0 | IL-6, Fold change [2, 3]: 10.85 | MCP-1, Fold change [2, 3]: 1.5 | TNF-alpha, Fold change [2, 3]: 1.6 | IL-12p40, Fold change [2, 4]: 1.0 | MIP-2, Fold change [2, 4]: 0.7 | IFN gamma, Post (8 hours) [2, 5]: 0 picogram/ml | IL-6, Post (8 hours) [2, 5]: 14.43 picogram/ml | MCP-1, Post (8 hours) [2, 5]: 23.54 picogram/ml | TNF-alpha, Post (8 hours) [2, 5]: 3.33 picogram/ml | IL-12p40, Post (Day 11) [2, 6]: 1.55 picogram/ml | MIP-2, Post (Day 11) [2, 6]: 13.67 picogram/ml | IFN gamma, Pre [2, 7]: 0 picogram/ml | IL-6, Pre [2, 7]: 1.33 picogram/ml | IL-12p40, Pre [2, 7]: 1.55 picogram/ml | MCP-1, Pre [2, 7]: 15.9 picogram/ml | MIP-2, Pre [2, 7]: 20.84 picogram/ml | TNF-alpha, Pre [2, 7]: 2.13 picogram/ml
